This note sets out measurements from publication PMC11758221, “Late-Stage Minimal Labeling of Peptides and Proteins for Real-Time Imaging of Cellular Trafficking” (ACS Central Science, 2024).

Read-outs that look alike come from different tables or passages of the source. Where a SMILES comes first, the peptide text is derived from it. Where no end group is shown, it is not given here. The star is where a group is joined. X1 = O=[N+]([O-])c1ccc(*)c2nsnc12

Data set [1] concerns RAW264.7 macrophages expressing the chemokine receptor CCR2. Kind of data set: Confocal imaging of receptor-mediated endocytosis of the labeled chemokine. The format is cell-based, mouse. To be noted: RAW264.7 cells, 4 μM, 1 h. From the text:
Figure 6 Site-selective mCCL2 chemokine labeling and real-time imaging of receptor-mediated endocytosis in live macrophages. A) Schematic representation of the chemokine mCCL2 (PDB: 1DOK) depicting the incorporation of SNBD at the C-terminal end. B) Coomassie-stained and in-gel fluorescence scanning of unlabeled mCCL2, mCCL2-SNBD, and the Pd-SNBD complex. C) Mass spectrometry analysis of unlabeled mCCL2 and mCCL2-SNBD proteins. D) Representative fluorescence confocal microscopy images of RAW264.7 cells after incubation with mCCL2-SNBD for 1 h. Left panel: untreated cells; middle panel: cells treated with mCCL2-SNBD (4 μM); right panel: cells treated with mCCL2-SNBD (4 μM) and the CCR2 antagonist RS102895 (40 μM) (exc/em: 405/515 nm). Insets show the corresponding brightfield images. Scale bars: 25 μm. […]
Next, we acquired fluorescence microscopy images in live RAW264.7 macrophages as a murine macrophage cell line expressing the chemokine receptor CCR2.[64] We incubated the macrophages with mCCL2-SNBD, and fluorescence images were taken after 1 hour without any washing steps. […]
[…] Th e si gn al s w ere recorded as mi l l i degrees at 25 °C , an d th e mean resi du e el l i pti ci ty (MR E ) w as cal cu l ated accordi n g to [θ] […]

In the next data set the test system is Human red blood cells. Kind of data set: Haemolysis assay. The class given is cell-based. As for the experimental part: H aemolysis assays. […] H u man red bl ood cel l s w ere separated f rom seru m an d w ash ed i n ph osph ate- bu ff ered sal i n e (P B S , pH 7.4) with 4–5 ti mes cen tri f u gati on at 4000 rpm f o r 1 mi n . E ryth rocytes w ere th en resu spended in PBS as a 0.5% (v/v) sol u ti on , an d co- i n cu bated w i th seri al l y di l u ted pepti des i n a 96-w el l pl ate f o r 1 h at 37 °C . […] PBS and […]
0 .0 1 % (v /v ) Tri to n X-100 w ere u sed as con trol s to establ i sh 0% an d 100% of h aemol ysis, respecti vel y. […]

Data set [2] is described as follows: Stability of labeled peptide with reducing bioanalytes (HPLC). The format is physicochemical. To be noted: peptide 250 µM in PBS pH 7.8, 37 °C. As for the experimental part: 5 mM gl u tath i on e >95% >95% >95%
Figure S8. Stability analysis of P1-SNBD under physiological conditions. […]

Data set [3] is described as follows: Chemical stability in PBS, cell culture media and reducing environments. The class given is physicochemical. The protocol: Next, we investigated the optical properties and stability of the S-aryl linkage in the two labeled peptides P1-SNBD and cP1-SNBD. We examined their chemical stability after incubation in phosphate buffered saline (PBS, pH 7.0) at 25 °C and cell culture media at 37 °C (Figures S6 and S7) as well as different biologically relevant reducing environments (Figure S8). […] Finally, we measured the emission spectra of P1-SNBD and cP1-SNBD and confirmed that the two peptides retained the fluorogenic behavior of benzodiazoles (Figure S9).

Where [4] appears, read: red cells of human, 1 h, pH 7.4.
Setting [5] is: human red blood cells 0.5% (v/v) in PBS pH 7.4, 1 h at 37 °C, haemoglobin absorbance 405 nm, 0.01% Triton X-100 = 100%, Hill fit with maximum constrained to 100%, read-out: hemolytic activity EC50.

Consider “mCCL2-SNBD: mCCL2 labeled with SNBD at the C-terminal Cys, 9063.6 Da”, for which the “internalization in presence of CCR2 antagonist” value in data set [1] (RS102895 40 μM pre-incubated 15 min) is recorded as “substantially reduced intracellular fluorescence emission”. The “internalization in live macrophages” value in data set [1] (no washing steps) is recorded as “bright fluorescence signals distributed across the cytosol”.

`CC[C@H](C)[C@H](NC(=O)[C@H](CCCCN)NC(=O)[C@H](CC(N)=O)NC(=O)[C@H](CCCNC(=N)N)NC(=O)[C@H](Cc1ccccc1)NC(=O)[C@H](CCCCN)NC(=O)[C@H](CCCNC(=N)N)NC(=O)[C@H](CC(C)C)NC(=O)[C@H](CCCNC(=N)N)NC(=O)[C@H](CCCCN)NC(=O)[C@H](CCCNC(=N)N)NC(=O)[C@H](CC(C)C)NC(=O)CN)C(=O)N[C@@H](CCCCN)C(=O)N[C@@H](CCC(=O)O)C(=O)N[C@@H](CCCCN)C(=O)N[C@@H](CSc1ccc([N+](=O)[O-])c2nsnc12)C(N)=O` [sC18-SNBD] (H-GLRKRLRKFRNKIKEKC(X1)-NH2): it took 43 ± 3 µM to reach a half-maximal effect in the data set on Human red blood cells (setting [4]) (EC50).

With `N=C(N)NCCC[C@H](NC(=O)CNC(=O)[C@@H](N)Cc1ccc(O)cc1)C(=O)N[C@@H](CCCCN)C(=O)N[C@@H](CCCCN)C(=O)N[C@@H](CCCNC(=N)N)C(=O)N[C@@H](CCCNC(=N)N)C(=O)N[C@@H](CCC(N)=O)C(=O)N[C@@H](CCCNC(=N)N)C(=O)N[C@@H](CCCNC(=N)N)C(=O)N[C@@H](CCCNC(=N)N)C(=O)N1CCC[C@H]1C(=O)N[C@@H](CCC(N)=O)C(N)=O` [TAT, reference compound], the EC50 in the data set on Human red blood cells (setting [5]) came out at 79 ± 6 µM.

With `CC(C)C[C@H](NC(=O)[C@H](Cc1ccc(O)cc1)NC(=O)[C@H](CCCNC(=N)N)NC(=O)[C@H](CO)NC(=O)[C@H](CSc1ccc([N+](=O)[O-])c2nsnc12)NC(=O)[C@H](C)NC(=O)[C@H](Cc1ccc(O)cc1)NC(=O)[C@H](CC(C)C)NC(=O)[C@@H](N)CCCCN)C(N)=O` [P1-SNBD] (H-KLYAC(X1)SRYL-NH2), the “Peptide stability, percentage relative to peptide without bioanalyte” value in data set [2] (1 mM NADH, 3 h) is over 95%; in data set [2] (1 mM NADH, 24 h), over 95%; in data set [2] (1 mM NADH, 48 h) it was over 95%; in data set [2] (5 mM glutathione, 3 h), over 95%; in data set [2] (5 mM glutathione, 24 h), over 95%; in data set [2] (5 mM glutathione, 48 h), over 95%. Further, the chemical stability entry in data set [3] (cell culture media at 37 °C) is “no major degradation”; in data set [3] (different biologically relevant reducing environments), “no major degradation”; in data set [3] (phosphate buffered saline (PBS, pH 7.0) at 25 °C), “no major degradation”.

Take `N=C(N)NCCC[C@H](NC(=O)CNC(=O)[C@@H](N)Cc1ccc(O)cc1)C(=O)N[C@@H](CCCCN)C(=O)N[C@@H](CCCCN)C(=O)N[C@@H](CCCNC(=N)N)C(=O)N[C@@H](CCCNC(=N)N)C(=O)N[C@@H](CCC(N)=O)C(=O)N[C@@H](CCCNC(=N)N)C(=O)N[C@@H](CCCNC(=N)N)C(=O)N[C@@H](CCCNC(=N)N)C(=O)N1CCC[C@H]1C(=O)N[C@@H](CCC(N)=O)C(=O)N[C@@H](CSc1ccc([N+](=O)[O-])c2nsnc12)C(N)=O` [TAT-SNBD]: the concentration for a half-maximal effect (EC50) in the data set on Human red blood cells (setting [5]) stood at 53 ± 2 µM.

For `CC[C@H](C)[C@H](NC(=O)[C@H](CCCCN)NC(=O)[C@@H](NC(=O)[C@H](CCC(N)=O)NC(=O)[C@@H](N)CCCNC(=N)N)[C@@H](C)CC)C(=O)N[C@@H](Cc1c[nH]c2ccccc12)C(=O)N[C@@H](Cc1ccccc1)C(=O)N[C@@H](CCC(N)=O)C(=O)N[C@@H](CC(N)=O)C(=O)N[C@@H](CCCNC(=N)N)C(=O)N[C@@H](CCCNC(=N)N)C(=O)N[C@@H](CCSC)C(=O)N[C@@H](CCCCN)C(=O)N[C@@H](Cc1c[nH]c2ccccc12)C(=O)N[C@@H](CCCCN)C(=O)N[C@@H](CCCCN)C(N)=O` [penetratin, reference compound], the half-maximal effective concentration (EC50) in the data set with Human red blood cells (setting [5]) was found to be 34 ± 5 µM.

On to “GLRKRLRKFRNKIKEK-NH2 [sC18, reference compound]”, for which the 50% effective concentration (EC50) with Human red blood cells (setting [5]) came to 70 ± 4 µM.

`CC[C@H](C)[C@H](NC(=O)[C@H](CCCCN)NC(=O)[C@@H](NC(=O)[C@H](CCC(N)=O)NC(=O)[C@@H](N)CCCNC(=N)N)[C@@H](C)CC)C(=O)N[C@@H](Cc1c[nH]c2ccccc12)C(=O)N[C@@H](Cc1ccccc1)C(=O)N[C@@H](CCC(N)=O)C(=O)N[C@@H](CC(N)=O)C(=O)N[C@@H](CCCNC(=N)N)C(=O)N[C@@H](CCCNC(=N)N)C(=O)N[C@@H](CCSC)C(=O)N[C@@H](CCCCN)C(=O)N[C@@H](Cc1c[nH]c2ccccc12)C(=O)N[C@@H](CCCCN)C(=O)N[C@@H](CCCCN)C(=O)N[C@@H](CSc1ccc([N+](=O)[O-])c2nsnc12)C(N)=O` [penetratin-SNBD]: the EC50 in the data set with Human red blood cells (setting [4]) turned out to be 27 ± 3 µM.

One may read the EC50 as the concentration giving half of the maximal effect.
